Test results reported in ChEMBL document CHEMBL5608180, “DNA G-quadruplexes in the genome of Trypanosoma cruzi as potential therapeutic targets for Chagas disease: Dithienylethene ligands as effective antiparasitic agents” (Eur J Med Chem, 2024).
The source made the active and inactive calls. No cut-off for these calls is given here.

Assays:
[1] = Selectivity index, ratio of IC50 for cytotoxicity against human MRC5 cells to IC50 for antiparasitic activity against epimastigote form of Trypanosoma cruzi Y (TcII); format: toxicity, cell-based; conditions: read-out: Ratio IC50
Trypanosoma cruzi [2] = assay: Antiparasitic activity against epimastigote form of Trypanosoma cruzi Y(TcII) assessed as inhibition of parasite growth incubated for 96 hrs followed by incubation with resazurin for 4 to 6 hrs by resazurin dye based fluorescence analysis; format: functional, organism-based
[3] = Selectivity index, ratio of IC50 for cytotoxicity against human MRC5 cells to IC50 for antiparasitic activity against epimastigote form of Trypanosoma cruzi SOL (TcV); format: toxicity, cell-based; conditions: read-out: Ratio IC50
Trypanosoma cruzi [4] = assay: Antiparasitic activity against trypomastigote form of Trypanosoma cruzi SOL (MHOM/ES/2008/SOL; DTU V) assessed as inhibition of parasite growth incubated for 96 hrs followed by incubation in dark with resazurin for 4 to 6 hrs by resazurin dye based fluorescence analysis; format: functional, organism-based
[5] = Cytotoxicity against human MRC5 cells; format: toxicity, cell-based
Trypanosoma cruzi [6] = assay: Antiparasitic activity against epimastigote form of Trypanosoma cruzi BM Lopez (TcIa) assessed as inhibition of parasite growth incubated for 96 hrs followed by incubation with resazurin for 4 to 6 hrs by resazurin dye based fluorescence analysis; format: functional, organism-based
[7] = Selectivity index, ratio of IC50 for cytotoxicity against human MRC5 cells to IC50 for antiparasitic activity against trypomastigote form of Trypanosoma cruzi SOL (TcV); format: toxicity, cell-based; conditions: read-out: Ratio IC50
Trypanosoma cruzi [8] = assay: Antiparasitic activity against epimastigote form of Trypanosoma cruzi SOL(TcV) assessed as inhibition of parasite growth incubated for 96 hrs followed by incubation in dark with resazurin for 4 to 6 hrs by resazurin dye based fluorescence analysis; format: functional, organism-based
[9] = Selectivity index, ratio of IC50 for cytotoxicity against human MRC5 cells to IC50 for antiparasitic activity against epimastigote form of Trypanosoma cruzi BM Lopez (TcIa); format: toxicity, cell-based; conditions: read-out: Ratio IC50
Trypanosoma cruzi [10] = assay: Antiparasitic activity against epimastigote form of Trypanosoma cruzi DA (TcI) assessed as inhibition of parasite growth incubated for 96 hrs followed by incubation with resazurin for 4 to 6 hrs by resazurin dye based fluorescence analysis; format: functional, organism-based
[11] = Selectivity index, ratio of IC50 for cytotoxicity against human MRC5 cells to IC50 for antiparasitic activity against epimastigote form of Trypanosoma cruzi DA (TcI); format: toxicity, cell-based; conditions: read-out: Ratio IC50
Trypanosoma cruzi [12] = assay: Potency index, ratio of Benznidazole IC50 to test compound IC50 for antiparasitic activity against trypomastigote form of Trypanosoma cruzi SOL (MHOM/ES/2008/SOL; DTU V) by resazurin dye based fluorescence analysis; format: functional
Quadruplex DNA [13] = assay: Binding affinity to Trypanosoma cruzi G-quadruplex TCr DNA (FAM-5'-GGGAGGGACGGATGGGCAGAAACGGG-3'-TAMRA) assessed as broadening of imino proton signals at 1 equiv. by 1H-NMR analysis; format: nucleic-acid assay
Quadruplex DNA [14] = assay: Stabilization of human telomere G-quadruplex F21T DNA (FAM-5'-GGGTTAGGGTTAGGGTTAGGG-3'-TAMRA) at 5 uM in presence of 1 to 10 uM double stranded ds26 DNA by FRET melting analysis; format: nucleic-acid assay
Quadruplex DNA [15] = assay: Stabilization of Trypanosoma cruzi G-quadruplex RCr DNA (FAM-5'-GGGGACGGGAATGGGGGTGCATGAGGGG-3'-TAMRA) assessed as change in apparent melting temperature at 5 uM by FRET melting analysis; format: nucleic-acid assay
Quadruplex DNA [16] = assay: Binding affinity to Trypanosoma cruzi G-quadruplex RCr DNA (FAM-5'-GGGGACGGGAATGGGGGTGCATGAGGGG-3'-TAMRA) assessed as decrease in absorption with shift to higher wavelength at 30 uM by UV-Vis spectrophotometric analysis; format: nucleic-acid assay
Quadruplex DNA [17] = assay: Stabilization of Trypanosoma cruzi G-quadruplex MCr DNA (FAM-5'-GTGGAGGGGGAGGGTCATGGGG-3'-TAMRA) assessed as change in apparent melting temperature at 5 uM by FRET melting analysis; format: nucleic-acid assay
Quadruplex DNA [18] = assay: Binding affinity to Trypanosoma cruzi G-quadruplex RCr DNA (FAM-5'-GGGGACGGGAATGGGGGTGCATGAGGGG-3'-TAMRA) assessed as increase in melting temperature at DNA:compound concentration ratio of 1:2 by CD melting assay; format: nucleic-acid assay
Quadruplex DNA [19] = assay: Binding affinity to Trypanosoma cruzi G-quadruplex RCr DNA (FAM-5'-GGGGACGGGAATGGGGGTGCATGAGGGG-3'-TAMRA) assessed as broadening of imino proton signals with delta shift at 1 equiv. by 1H-NMR analysis; format: nucleic-acid assay
Quadruplex DNA [20] = assay: Stabilization of human telomere G-quadruplex F21T DNA (FAM-5'-GGGTTAGGGTTAGGGTTAGGG-3'-TAMRA) assessed as change in apparent melting temperature at 5 uM by FRET melting analysis; format: nucleic-acid assay
dsDNA [21] = assay: Binding affinity to human duplex FdxT DNA (FAM-5'-TATAGCTAT-peg-TATAGCTATA-3'-TAMRA) at 5 uM by FRET melting analysis; format: nucleic-acid assay
dsDNA [22] = assay: Binding affinity to double stranded ds26 DNA (unknown origin) assessed as decrease in absorbance with shift to lower wavelength at 30 uM by UV-Vis spectrophotometric analysis; format: nucleic-acid assay
Quadruplex DNA [23] = assay: Binding affinity to Trypanosoma cruzi G-quadruplex MCr DNA (FAM-5'-GTGGAGGGGGAGGGTCATGGGG-3'-TAMRA) assessed as broadening of imino proton signals at 1 equiv. by 1H-NMR analysis; format: nucleic-acid assay
Quadruplex DNA [24] = assay: Binding affinity to Trypanosoma cruzi G-quadruplex MCr DNA (FAM-5'-GTGGAGGGGGAGGGTCATGGGG-3'-TAMRA) at DNA:compound concentration ratio of 1:1 to 1:2 by CD melting assay; format: nucleic-acid assay
Quadruplex DNA [25] = assay: Binding affinity to Trypanosoma cruzi G-quadruplex MCr DNA (FAM-5'-GTGGAGGGGGAGGGTCATGGGG-3'-TAMRA) assessed as decrease in absorption with shift to higher wavelength at 30 uM by UV-Vis spectrophotometric analysis; format: nucleic-acid assay
Quadruplex DNA [26] = assay: Stabilization of Trypanosoma cruzi G-quadruplex TCr DNA (FAM-5'-GGGAGGGACGGATGGGCAGAAACGGG-3'-TAMRA) assessed as change in apparent melting temperature at 5 uM by FRET melting analysis; format: nucleic-acid assay
Quadruplex DNA [27] = assay: Stabilization of human proto-oncogene G-quadruplex MYC DNA (FAM-5'-TTGAGGGTGGGTAGGGTGGGTAA-3'-TAMRA) assessed as change in apparent melting temperature at 5 uM by FRET melting analysis; format: nucleic-acid assay
Quadruplex DNA [28] = assay: Stabilization of Trypanosoma cruzi G-quadruplex RCr DNA (FAM-5'-GGGGACGGGAATGGGGGTGCATGAGGGG-3'-TAMRA) at 10 uM by FRET melting analysis; format: nucleic-acid assay
Quadruplex DNA [29] = assay: Stabilization of Trypanosoma cruzi G-quadruplex RCr DNA (FAM-5'-GGGGACGGGAATGGGGGTGCATGAGGGG-3'-TAMRA) at 5 uM in presence of 1 to 10 uM double stranded ds26 DNA by FRET melting analysis; format: nucleic-acid assay

SMILES	IC50 (Trypanosoma cruzi [2]) [µM]	IC50 (Trypanosoma cruzi [6]) [µM]	IC50 (Trypanosoma cruzi [8]) [µM]	IC50 (Trypanosoma cruzi [10]) [µM]	selectivity ratio [1]	selectivity ratio [3]	IC50 [5] [µM]	selectivity ratio [9]	selectivity ratio [11]	further results
O=C(Cn1ccnc1[N+](=O)[O-])NCc1ccccc1 [BENZNIDAZOLE]	20.3	6.3	11.2	–	2.3	4.2	47.2	7.5	–	IC50 (Trypanosoma cruzi [4]): 57.1 µM; selectivity ratio [7]: < 1
NCCOc1cc(C(=O)Nc2cc(OCCN)c3ccccc3n2)nc(C(=O)Nc2cc(OCCN)c3ccccc3n2)c1 [PYRIDOSTATIN]	> 100	> 100	> 100	> 100	< 1	< 1	–	< 1	< 1	–
CN(C)c1ccc(Nc2c3ccc(NC(=O)CCN4CCCC4)cc3nc3cc(NC(=O)CCN4CCCC4)ccc23)cc1	> 100	49.4	> 100	47.5	< 1	< 1	–	< 1	< 1	–
C[C@]12SC(c3ccc(CN4CCCC4)cc3)=CC1=C1CCCC1=C1C=C(c3ccc(CN4CCCC4)cc3)S[C@@]12C	> 34	> 50	> 50	40.1	< 1	< 1	22.5	< 1	< 1	–
Cc1sc(-c2cccc3c2ccc[n+]3C)cc1C1=C(c2cc(-c3cccc4c3ccc[n+]4C)sc2C)CCC1	22.8	22.7	20.4	14.4	< 1	1	20.5	< 1	1.4	–
Cc1sc(-c2cc[n+](C)cc2)cc1C1=C(c2cc(-c3cc[n+](C)cc3)sc2C)CCC1	23.1	> 28.6	> 27.4	> 28.2	< 1	< 1	2.4	< 1	< 1	–
Cc1sc(-c2ccc(N3CCNCC3)cc2)cc1C1=C(c2cc(-c3ccc(N4CCNCC4)cc3)sc2C)CCC1	29.5	29.8	30.8	13.9	< 1	< 1	8	< 1	< 1	–
C[C@]12SC(c3ccc(-c4ccncc4)cc3)=CC1=C1CCCC1=C1C=C(c3ccc(-c4ccncc4)cc3)S[C@@]12C	42.8	60.1	> 50	36.6	< 1	< 1	4.9	< 1	< 1	–
CN(C)CCc1ccc(C2=CC3=C4CCCC4=C4C=C(c5ccc(CCN(C)C)cc5)S[C@]4(C)[C@@]3(C)S2)cc1	31.1	> 48.4	45.1	13.4	< 1	< 1	6.1	< 1	< 1	–
C[C@]12SC(c3ccc(N4CCNCC4)cc3)=CC1=C1CCCC1=C1C=C(c3ccc(N4CCNCC4)cc3)S[C@@]12C	> 50	> 50	> 50	32	< 1	< 1	4.3	< 1	< 1	–
C[C@]12SC(c3ccc4cccnc4c3)=CC1=C1CCCC1=C1C=C(c3ccc4cccnc4c3)S[C@@]12C	20.9	40.7	22.3	20.6	3.9	3.7	82.5	2	4	Ratio IC50 (Trypanosoma cruzi [12]): 17; Activity (Quadruplex DNA [13]): Active; Activity (Quadruplex DNA [14]): Active; ΔTm (Quadruplex DNA [15]): 17 °C; Activity (Quadruplex DNA [16]): Active; ΔTm (Quadruplex DNA [17]): 14 °C; ΔTm (Quadruplex DNA [18]): 3.81 °C; Activity (Quadruplex DNA [19]): Active; ΔTm (Quadruplex DNA [20]): 17 °C; Activity (dsDNA [21]): inactive; Activity (dsDNA [22]): inactive; IC50 (Trypanosoma cruzi [4]): 3.3 µM; Activity (Quadruplex DNA [23]): Active; Activity (Quadruplex DNA [24]): Active; Activity (Quadruplex DNA [25]): Active; ΔTm (Quadruplex DNA [26]): 17 °C; ΔTm (Quadruplex DNA [27]): 17 °C; Activity (Quadruplex DNA [28]): Active; selectivity ratio [7]: 25; Activity (Quadruplex DNA [29]): Active

Stronger by IC50 (Trypanosoma cruzi [2]), values ahead:

IC50 (Trypanosoma cruzi [2]) [µM]	IC50 (Trypanosoma cruzi [6]) [µM]	IC50 (Trypanosoma cruzi [8]) [µM]	IC50 (Trypanosoma cruzi [10]) [µM]	SMILES	selectivity ratio [1]	selectivity ratio [3]	IC50 [5] [µM]	selectivity ratio [9]	selectivity ratio [11]	further results
3.6	4	3.8	2.7	Cc1sc(-c2ccc(CCN(C)C)cc2)cc1C1=C(c2cc(-c3ccc(CCN(C)C)cc3)sc2C)CCC1	< 1	< 1	2.6	< 1	< 1	–
6.6	4.6	9.75	6.1	Cc1sc(-c2ccc(CN3CCCC3)cc2)cc1C1=C(c2cc(-c3ccc(CN4CCCC4)cc3)sc2C)CCC1	1.1	< 1	7.2	1.6	1.2	–
14.2	19.1	21.2	6.8	Cc1sc(-c2ccc(CC[N+](C)(C)C)cc2)cc1C1=C(c2cc(-c3ccc(CC[N+](C)(C)C)cc3)sc2C)CCC1	< 1	< 1	2.7	< 1	< 1	–
14	25.2	37.1	28.4	Cc1sc(-c2ccc(-c3cc[n+](C)cc3)cc2)cc1C1=C(c2cc(-c3ccc(-c4cc[n+](C)cc4)cc3)sc2C)CCC1	< 1	< 1	2.2	< 1	< 1	–
13.9	> 25.6	> 18.3	30.2	C[C@]12SC(c3ccncc3)=CC1=C1CCCC1=C1C=C(c3ccncc3)S[C@@]12C	< 1	< 1	3.3	< 1	< 1	–
